In US7279502B2, “Polyamine analog conjugates and quinone conjugates as therapies for cancers and prostate diseases” (Cellgate, Inc., priority 1999, dated 2007):
Like-named read-outs stand apart in the source and are kept apart here.

What was measured:
[1] = test system: prostate xenograft tumors; conditions: nude mice; cited from earlier work
[2] = rats, Kanter et al. (1994); cited from earlier work
[3] = test system: A549 human large cell hung carcinoma; conditions: constant infusion via Alzet pump delivery for 5 days; cited from earlier work
[4] = Creaven et al. (1997); cited from earlier work
[5] = in one study; cited from earlier work
[6] = test system: human prostate adenocarcinoma cell line PC-3; assay: MTT assay, quinones, PC-3; format: cell-based; conditions: Table 3, treatment time not given in cell, read-out: ID50 PC-3
Experimental: (§1) Cell Culture: The human lung adenocarcinoma cell line, A549, and human prostatic cancer cell line, DUPRO, were a gift from Dr. M. Eileen Dolan, University of Chicago, Department of Medicine. A549 was grown in Ham's F-12K medium (Fisher Scientific, Itasca, Ill.) supplemented with 10% fetal bovine serum and 2 mM L-glutamine. DUPRO was grown in RPMI-1640 supplemented with 10% fetal bovine serum. The human colon carcinoma cell line, HT29, and the human breast carcinoma cell line, MCF7, were obtained from the American Type Culture Collection, Rockville, Md. HT29 cells were grown in McCoy's 5A medium (Gibco, BRL, Gaithersburg, Md.) supplemented with 10% fetal bovine serum. MCF7 cells were grown in Richter's Improved Modified Eagle's medium supplemented with 10% fetal bovine serum and 2.2 g/L sodium bicarbonate. The human prostate adenocarcinoma cell lines, LNCAP, PC-3 and DU145, were gifts from Dr. George Wilding, University of Wisconsin Comprehensive Cancer Center and the Department of Medicine, and were grown in Dulbecco's Modified Eagle's medium supplemented with a 5% fetal bovine serum. The malignant glioma cell line, U251MG NCI was obtained from the brain tumor tissue bank at the University of California, San Francisco Department of Neurosurgery, and was grown in Dulbecco's Modified Eagle's medium supplemented wth 10% fetal bovine serum. DUPRO, A549 and MCF7 cells were grown in 100 units/mL penicillin and 100 μg/mL streptomycin. HT29 and U251MG NCI cells were grown in 50 μg/mL gentamycin. LNCAP, PC-3 and DU145 cells were maintained in 1% antibiotic antimycotic solution (Sigma, St. Louis, Mo.). All cell cultures were maintained at 37° C. in 5% CO2/95% humidified air.
(§2) MTT assay. Exponentially growing monolayer cells were plated in 96 well plates at a density of 500 cells/well and allowed to grow for 24 h. Serially diluted drug solutions were added such that the final drug concentrations in the treatment media were between 0 and 35 μM. Cells were incubated with drug at either 4 hr or 72 hr. After 4 hr and 72 hr treatment, drugs were removed, fresh media (without) drug (100 uL) was added and cells were incubated for 6 days. After six days, 25 μL of a Dulbecco's phosphate-buffered saline solution containing 5 mg/mL of MTT (Thiazolyl blue) (Sigma) was added to each well and incubated for 4 h at 37° C. Then 100 μL of lysis buffer (20% sodium dodecyl sulfate, 50% N,N-dimethylformamide and 0.8% acetic acid, pH 4.7) was added to each well and incubated for an additional 22 h. A microplate reader (E max, Molecular Devices, Sunnyvale, Calif.) set at 570 nm was used to determine the optical density. Results were plotted as a ratio of the optical density in drug treated wells to the optical density in wells treated with vehicle alone. Plotting and estimation of ID50 values were accomplished with manufacturer supplied software. The data is presented below in Tables 3, 4, 5 and 6.

[7] = test system: human prostate adenocarcinoma cell line DU145; assay: MTT assay, quinones, DU145; format: cell-based; conditions: DU-145, Table 3, treatment time not given in cell, read-out: ID50 DU145
Experimental: as §1
(§3) MTT assay. Exponentially growing monolayer cells were plated in 96 well plates at a density of 500 cells/well and allowed to grow for 24 h. Serially diluted drug solutions were added such that the final drug concentrations in the treatment media were between 0 and 35 μM. […] A microplate reader (E max, Molecular Devices, Sunnyvale, Calif.) set at 570 nm was used to determine the optical density. […]

[8] = test system: human prostatic cancer cell line, DUPRO; assay: MTT assay, quinones, DUPRO; format: cell-based; conditions: Table 3, treatment time not given in cell, read-out: ID50 DUPRO
Experimental: as §1, §3

[9] = test system: malignant glioma cell line, U251MG NCI; assay: MTT assay, quinones, U251MG NCI; format: cell-based, human; conditions: read-out: ID50 Brain U251-MG
Experimental: as §1, with “The malignant glioma cell line, U251MG NCI was obtained from the brain tumor tissue bank at the University of California, San Francisco Department of Neurosurgery, and was grown in Dulbecco's Modified Eagle's medium supplemented wth 10% fetal bovine serum. DUPRO, A549 and MCF7 cells were grown in 100 units/mL penicillin and 100 μg/mL streptomycin. HT29 and U251MG NCI cells were grown in 50 μg/mL gentamycin. LNCAP, PC-3 and DU145 cells were maintained in 1% antibiotic antimycotic solution (Sigma, St. Louis, Mo.). All cell cultures were maintained at 37° C. in 5% CO2/95% humidified air.” left out
MTT assay. […] A microplate reader (E max, Molecular Devices, Sunnyvale, Calif.) set at 570 nm was used to determine the optical density. […]

[10] = test system: human breast carcinoma cell line, MCF7; assay: MTT assay, quinones, MCF7; format: cell-based; conditions: Table 4, treatment time not given in cell, read-out: ID50 Breast MCF7
Experimental: as §1, §2

[11] = test system: human breast cancer cells MCF7; assay: MTT assay, polyamine analogs, MCF7; format: cell-based
Experimental: (§4) As shown in Table 2 and FIGS. 1-32, several novel conformationally restricted polyamine analogs were tested for anti-proliferative properties against cancer cells.
(§5) Human breast cancer cell line MCF7 was grown in Richter's Improved Modified Eagle's Medium supplemented with 10% fetal bovine serum (FBS) and 2.2 g/L sodium bicarbonate. Human brain tumor cell line U251 MG-NCI was grown in Dulbecco's Modified Eagle's Medium supplemented with 10% FBS. Human lung cancer cell line A549 was grown in Ham's F-12K medium (Cellgro, Mediatech, Inc., VA), supplemented with 10% FBS and 2 mM L-glutamine. Human colon cancer cell line HT29 was cultured in McCoy's 5A medium (Gibco, BRL, Gaithersburg, Md.) supplemented with 10% FBS. Human prostate cancer cell lines PC-3, LNCAP and DuPro were grown in RPMI 1640 Medium (Cellgro, Mediatech, Inc., VA) supplemented with 10% FBS. Another human prostate cancer cell line DU145 was grown in Dulbecco's Modified Eagle's Medium (Gibco, BRL, Gaithersburg, Md.) supplemented with 5% FBS. The A549, MCF7, PC3, LNCAP and DuPro cell lines were cultured in 100 units/mL penicillin and 100 μg/mL streptomycin. HT29 and U251MG cell lines were grown in 50 μg/mL gentamycin (Gibco, BRL, Gaithersburg, Md.). DU145 cell line was maintained in 1% antibitic-antimycotic solution (Sigma, St. Louis, Mo.). The cell cultures were maintained at 37° C. in 5% CO2/95% humidified air. DuPro cells were obtained from M. Eileen Dolan, University of Chicago. All other cells are available from the American Type Culture Collection, Rockville, Md.
(§6) A conventional MTT assay was used to evaluate percent cell survival. Exponentially growing monolayer cells were plated in 96-well plates at a density of 500 cells per well and allowed to grow for 24 hours. Serial dilutions of the drugs were added to the wells. Six days after drug treatment, 25 μl of MTT solution (5 mg/ml) was added to each well and incubated for 4 hours at 37° C. Then 100 μl of lysis buffer (20% sodium dodecyl sulfate, 50% DMF, and 0.8% acetic acid, pH 4.7) was added to each well and incubated for an additional 22 hours. A microplate reader (“EMAX”-brand, Molecular Devices, Sunnyvale, Calif.) set at 570 nm was used to determine the optical density of the cultures. Results are expressed as a ratio of the optical density in drug-treated wells to the optical density in wells treated with vehicle only.

[12] = test system: human prostate cancer cells DUPRO; assay: MTT assay, polyamine analogs, DUPRO; format: cell-based; conditions: Homo sapiens, DuPro
Experimental: as §5, §6

[13] = test system: human prostate cancer cells PC3; assay: MTT assay, polyamine analogs, PC3; format: cell-based; conditions: PC-3, survival of cultured PC3 cells, figure legends, read-out: ED50 (the source's name)
Experimental: as §5, §6

[14] = test system: human prostate cancer cells LNCAP; assay: MTT assay, polyamine analogs, LNCAP; format: cell-based; conditions: Homo sapiens, LNCaP, survival of cultured LNCAP cells, figure legends; read-out: ED50 (the source's name)
Experimental: as §5
A conventional MTT assay was used to evaluate percent cell survival. Exponentially growing monolayer cells were plated in 96-well plates at a density of 500 cells per well and allowed to grow for 24 hours. Serial dilutions of the drugs were added to the wells. Six days after drug treatment, 25 μl of MTT solution (5 mg/ml) was added to each well and incubated for 4 hours at 37° C. […] A microplate reader (“EMAX”-brand, Molecular Devices, Sunnyvale, Calif.) set at 570 nm was used to determine the optical density of the cultures. Results are expressed as a ratio of the optical density in drug-treated wells to the optical density in wells treated with vehicle only.

[15] = test system: human prostate cancer cells DU145; assay: MTT assay, polyamine analogs, DU145; format: cell-based; conditions: Homo sapiens
Experimental: as §5, §6

[16] = test system: human lung cancer cells A549; assay: MTT assay, polyamine analogs, A549; format: cell-based; conditions: Homo sapiens
Experimental: as §4, §5, §6

[17] = test system: human brain tumor cells U251 MG NCI; assay: MTT assay, polyamine analogs, U251 MG NCI; format: cell-based
Experimental: as §5, §6

[18] = test system: human colon cancer cells HT29; assay: MTT assay, polyamine analogs, HT29; format: cell-based
Experimental: as §4, §5, §6

tumor cell lines = assay: In vitro anti-proliferative testing, summary statements; format: cell-based, human; conditions: FIGS. 57-59: PC3, DUPRO, LNCAP
Experimental: as §6

SMILES: CCNCCCNCCCNCCCNCC [BE-333, N1,N11-diethylnorspermine]
- inhibition of prostate xenograft tumors [1]: particularly effective in inhibiting prostate xenograft tumors in nude mice
- toxicity on administration [2]: labored breathing, convulsive movements and acute death
- anti-tumor activity, effect of schedule [3]: dramatically improves the anti-tumor activity
- side effects [4]: headache, nausea and vomiting, unilateral weakness, dysphagia, dysarthria, numbness, paresthesias, and ataxia

SMILES: CCNCCCNCCCCCCCNCCCNCC [BE-373]
- inhibition of prostate xenograft tumors [1]: particularly effective in inhibiting prostate xenograft tumors in nude mice

SMILES: CCNCCCCNCCCCNCCCCNCCCCNCC [BE-4444, 1,19-bis(ethylamino)-5,10,15-triazanonadecane]
- inhibition of prostate xenograft tumors [1]: particularly effective in inhibiting prostate xenograft tumors in nude mice

SMILES: CC(/C=N/NC(=N)N)=N\NC(=N)N [MGBG, methylglyoxal-bis-guanylhydrazone]
- side effects, drug deaths [5]: drug deaths occurred in over half of treated animals

SMILES: O=C1C=C(OCCCCCCO)c2ccccc2C1=O [SL-11051]
- IC50 [6]: 17100 nM
- IC50 [7]: 11200 nM
- IC50 [8]: 19300 nM

SMILES: CC1(C)CCC2=C(O1)c1ccccc1C(=O)C2=O [SL-11058]
- IC50 ([9]; Table 6, non-quinone compounds): > 31200 nM

SMILES: O=C1C=C(OCCCCCNC2CCCCC2)c2ccccc2C1=O [SL-11060]
- IC50 ([9]; Homo sapiens, U-251, Table 4, treatment time not given in cell): > 31200 nM
- IC50 [10]: 17200 nM

SMILES: O=C1C=C(OCCCCCCCc2ccc(Nc3c4ccccc4nc4ccccc34)cc2)c2ccccc2C1=O [SL-11064, Quinone-anilinoacridine]
- IC50 [6]: 700 nM
- IC50 [7]: 130 nM
- IC50 [8]: 2200 nM

SMILES: CCNC/C=C\CNC/C=C\CNC/C=C\CNCC [SL-11108]
- IC50 ([11]; MCF7, 144 h, read-out: concentration needed for 50% growth inhibition (ID50) MCF7, Table 2, MTT six days after drug treatment): > 31200 nM
- EC50 ([11]; MCF7, survival of cultured MCF7 cells, figure legends, read-out: ED50 (the source's name)): > 31200 nM
- IC50 ([12]; 144 h, read-out: concentration needed for 50% growth inhibition (ID50) DUPRO, Table 2, MTT six days after drug treatment): 980 nM
- EC50 ([12]; survival of cultured DUPRO cells, figure legends, read-out: ED50 (the source's name)): 980 nM
- EC50 [13]: 2200 nM
- EC50 [14]: 7700 nM
- IC50 ([15]; DU-145, 144 h, read-out: concentration needed for 50% growth inhibition (ID50) DU-145, Table 2, MTT six days after drug treatment): 130 nM
- EC50 ([15]; DU-145, survival of cultured DU145 cells, figure legends, read-out: ED50 (the source's name)): 130 nM
- IC50 ([16]; A549, 144 h, read-out: concentration needed for 50% growth inhibition (ID50) A549, Table 2, MTT six days after drug treatment): > 31200 nM
- EC50 ([16]; A549, survival of cultured A549 cells, figure legends, read-out: ED50 (the source's name)): > 31200 nM
- IC50 ([17]; U-251, 144 h, read-out: concentration needed for 50% growth inhibition (ID50) U251MG, Table 2, MTT six days after drug treatment): 2000 nM
- EC50 ([17]; U-251, survival of cultured U251 MG NCI cells, figure legends, read-out: ED50 (the source's name)): 2000 nM
- IC50 ([18]; HT-29, 144 h, read-out: concentration needed for 50% growth inhibition (ID50) HT-29, Table 2, MTT six days after drug treatment): 2000 nM
- EC50 ([18]; HT-29, survival of cultured HT29 cells, figure legends, read-out: ED50 (the source's name)): 2000 nM

SMILES: O=C1C=C(CCCCCCCCc2ccc(Nc3c4ccccc4nc4ccccc34)cc2)c2ccccc2C1=O [SL-11125, Quinone-acridine]
- IC50 [6]: 5900 nM
- IC50 [7]: 130 nM
- IC50 [10]: 5100 nM
- IC50 [8]: 7900 nM

SMILES: CCNCCCCNCCCCNCCCCNCCCCNCCO [SL-11141]
- effectiveness against tumor cell lines in vitro (tumor cell lines): display effectiveness against tumor cell lines in vitro
